Key:
[1] = system: effets β1 (augmentation de la force contractile du myocarde) de l'isoprénaline; assay: β-blocking activity: inhibition of the β1 effects of intravenous isoprenaline in anaesthetised dogs; type: in vivo, chiens; settings: dog
Method: (§1) Des chiens tout-venants mâles ou femelles sont anesthésiés au mébubarbital sodique (30 mg/kg I.V.) et ventilés artificiellement par une pompe Pesty RPP. Ils sont supplémentés en oxygène.
(§2) On mesure: • - la pression carotidienne systolique et diastolique • - la force contractile du myocarde.
(§3) Les signaux sont amplifiés et enregistrés sur Dynograph Beckman.
(§4) L'activité β bloquante adrénergique a été étudiée vis-à-vis des effets β1 (augmentation de la force contractile du myocarde) et des effets P2 (diminution de la pression artérielle disstolique) de l'isoprénaline administrée par voie intraveineuse.
(§5) On calcule le pourcentsge d'inhibition des effets β1 et des effets β2 de l'isoprénaline en fonction des doses (mg.kg I.V.) des différents exemples.
(§6) Les exemples sont injectés dans le veine saphène aux doses (exprimées en base) de: 0,0003 0,001 0,003 0,01 0,1 1,0 et 4,0 ou 8,0 mg.kg-1.

[2] = system: effets β2 (diminution de la pression artérielle diastolique) de l'isoprénaline; assay: β-blocking activity: inhibition of the β2 effects of intravenous isoprenaline in anaesthetised dogs; type: in vivo, chiens; settings: dog
Method: as §1, §2, §3, §4, §5, §6

[3] = system: rat génétiquement hypertendu: Rat OKAMOTO; assay: Antihypertensive activity in spontaneously hypertensive rats (tail-cuff systolic pressure and heart rate after oral dosing); type: in vivo; settings: 64 mg.kg^-1 V.O
Method: Des rats mâles âgés de 13 à 21 semaines présentant une hypertension spontanée génétiquement transmissible (souche OKAMOTO provenance IFFA CREDO) sont placés dans une enceinte thermostatée à 38°C. Les rats sont laissés en situation libre. La pression artérielle est mesurée par un sphygmomanomètre Narco Biosystem. Un manchon est placé à la base de la queue et un détecteur enregistre le pouls en aval du manchon. Celui-ci est gonflé jusqu'à suppression du pouls il est ensuite progressivement dégonflé. La pression mesurée à la reprise des battements cardiaques est la pression artérielle systolique. On calcule la fréquence cardiaque à partir de l'enregistrement du pouls artériel. Les produits à étudiar sont mis en suspension el administrés par voie orale sous un volume de 1 ml pour 100 g de poids corporel. Les mesures sont répétées à intervalles réguliers.
Les valeurs moyennes avant traitement pour les différents lots de rats sont pour la pression artérielle systolique de 190 à 200 mmHg et pour la fréquence cardiaque de 305 à 350 battements par minute.
Le tableau III ci-après donne la moyenne des variations de la pression systolique (mmHg) de la fréquence cardisque (battements/minute) et les écarts type à la moyenne obtenus 1 heure 3 heures et 5 heures après administration orale.

[4] = 0.1 mg.kg^-1 voie intraveineuse
[5] = 1.0 mg.kg^-1 voie intraveineuse
[6] = 8.0 mg.kg^-1 voie intraveineuse

Structure (SMILES): C=CCc1cc(NC(=O)Cc2cccs2)ccc1OCC(O)CNC(C)(C)C (centres unmarked) [exemple 11, 1-[2-allyl 4-(2-thiénylacétamido)phénoxy] 3-ter-butylamino 2-propanol]
- Pourcentages d'inhibition des effets β1 de l'Isoprénaline ([1]; 0.001 mg.kg^-1 voie intraveineuse): 11%
- Pourcentages d'inhibition des effets β1 de l'Isoprénaline ([1]; 0.003 mg.kg^-1 voie intraveineuse): 37%
- Pourcentages d'inhibition des effets β1 de l'Isoprénaline ([1]; 0.01 mg.kg^-1 voie intraveineuse): 70%
- Pourcentages d'inhibition des effets β1 de l'Isoprénaline [1, 4]: 100%
- Pourcentages d'inhibition des effets β1 de l'Isoprénaline [1, 5]: 100%
- Pourcentages d'inhibition des effets β1 de l'Isoprénaline [1, 6]: 100%
- inhibition at 0.001 mg/kg ([1]; Canis lupus familiaris, iv, 0,001 mg/kg I.V., inhibition given with negative sign, read-out: % d'inhibition des effets β1^(+) de l'Isoprénaline): -11%
- inhibition at 0.003 mg/kg ([1]; Canis lupus familiaris, iv, 0,003 mg/kg I.V., inhibition given with negative sign, read-out: % d'inhibition des effets β1^(+) de l'Isoprénaline): -37%
- inhibition at 0.01 mg/kg ([1]; Canis lupus familiaris, iv, 0,010 mg/kg I.V., inhibition given with negative sign, read-out: % d'inhibition des effets β1^(+) de l'Isoprénaline): -70%
- inhibition at 0.1 mg/kg ([1]; Canis lupus familiaris, iv, 0,100 mg/kg I.V., inhibition given with negative sign, read-out: % d'inhibition des effets β1^(+) de l'Isoprénaline): -100%
- Pourcentages d'inhibition des effets β2 de l'Isoprénaline [2, 4]: 17%
- Pourcentages d'inhibition des effets β2 de l'Isoprénaline [2, 5]: 77%
- Pourcentages d'inhibition des effets β2 de l'Isoprénaline [2, 6]: 100%
- inhibition at 0.001 mg/kg ([2]; Canis lupus familiaris, iv, 0,001 mg/kg I.V., inhibition given with negative sign, read-out: % d'inhibition des effets β2^⊕ de l'Isoprénaline): 0%
- inhibition at 0.003 mg/kg ([2]; Canis lupus familiaris, iv, 0,003 mg/kg I.V., inhibition given with negative sign, read-out: % d'inhibition des effets β2^⊕ de l'Isoprénaline): 0%
- inhibition at 0.01 mg/kg ([2]; Canis lupus familiaris, iv, 0,010 mg/kg I.V., inhibition given with negative sign, read-out: % d'inhibition des effets β2^⊕ de l'Isoprénaline): 0%
- inhibition at 0.1 mg/kg ([2]; Canis lupus familiaris, iv, 0,100 mg/kg I.V., inhibition given with negative sign, read-out: % d'inhibition des effets β2^⊕ de l'Isoprénaline): -17%
- Fréquence cardiaque Δ (battements/min) T+1 heure m (sm) ([3]; T+1 heure): +7 (8) battements/min
- Pression systolique Δ (mmHg) T+1 heure m (sm) ([3]; T+1 heure): -54 (1) mmHg
- Fréquence cardiaque Δ (battements/min) T+3 heures m (sm) ([3]; T+3 heures): +10 (9) battements/min
- Pression systolique Δ (mmHg) T+3 heures m (sm) ([3]; T+3 heures): -49 (10) mmHg
- Fréquence cardiaque Δ (battements/min) T+5 heures m (sm) ([3]; T+5 heures): 0 (9) battements/min
- Pression systolique Δ (mmHg) T+5 heures m (sm) ([3]; T+5 heures): -44 (11) mmHg
